Measured values from the supplement of paper PMC10307832.

Key:
Assay in all cases: relative viability (nuclei count vs DMSO), 5 days (fraction); higher = more cells survive
LCLC-97TM1 = system: LCLC-97TM1
Method in brief: (§1)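 Relative viability is defined as nuclei in treated wells over nuclei in vehicle wells. Duplicate plates were run and medians reported. Lung cancer cell lines in 1536-well plates were dosed by pin tool one day after seeding, with one drug or with a fixed anchor-drug dose plus five library-drug doses (not always all listed) in √10 steps, and nuclei were counted after 5 days.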

HCC-366 = system: HCC-366
Method in brief: as §1

EBC-1 = system: EBC-1
Method in brief: as §1

NCI-H2009 = system: NCI-H2009
Method in brief: as §1

NCI-H1650 = system: NCI-H1650
Method in brief: as §1

RERF-LC-KJ = system: RERF-LC-KJ
Method in brief: as §1

ChaGo-K-1 = system: ChaGo-K-1
Method in brief: as §1

HCC-44 = system: HCC-44
Method in brief: as §1

COR-L23 = system: COR-L23
Method in brief: as §1

NCI-H460 = system: NCI-H460
Method in brief: as §1

SW 1573 = system: SW 1573
Method in brief: as §1

NCI-H2126 = system: NCI-H2126
Method in brief: as §1

LOU-NH91 = system: LOU-NH91
Method in brief: as §1

NCI-H1993 = system: NCI-H1993
Method in brief: as §1

HARA = system: HARA
Method in brief: as §1

201T = system: 201T
Method in brief: as §1

NCI-H441 = system: NCI-H441
Method in brief: as §1

HCC-78 = system: HCC-78
Method in brief: as §1

A-427 = system: A-427
Method in brief: as §1

NCI-H1734 = system: NCI-H1734
Method in brief: as §1

NCI-H2023 = system: NCI-H2023
Method in brief: as §1

HCC-15 = system: HCC-15
Method in brief: as §1

## CCCCCCCCCCCC1=C(O)C(=O)C=C(O)C1=O [Embelin] + CC1(C)CCC(c2ccc(Cl)cc2)=C(CN2CCN(c3ccc(C(=O)NS(=O)(=O)c4ccc(N[C@H](CCN5CCOCC5)CSc5ccccc5)c(S(=O)(=O)C(F)(F)F)c4)cc3)CC2)C1 [Navitoclax] (partner 0.5 µM)
LCLC-97TM1; first compound 0.8 µM
  relative viability: 0.46
LCLC-97TM1; first compound 2.53 µM
  relative viability: 0.499
LCLC-97TM1; first compound 8 µM
  relative viability: 0.399
HCC-366; first compound 0.08 µM
  relative viability: 0.953
HCC-366; first compound 0.8 µM
  relative viability: 1.16
HCC-366; first compound 2.53 µM
  relative viability: 1.13
HCC-366; first compound 8 µM
  relative viability: 1.11
EBC-1; first compound 0.08 µM
  relative viability: 0.439
EBC-1; first compound 0.8 µM
  relative viability: 0.426
EBC-1; first compound 2.53 µM
  relative viability: 0.425
EBC-1; first compound 8 µM
  relative viability: 0.404
NCI-H2009; first compound 0.08 µM
  relative viability: 1.23
NCI-H2009; first compound 0.8 µM
  relative viability: 1.24
NCI-H2009; first compound 2.53 µM
  relative viability: 1.23
NCI-H2009; first compound 8 µM
  relative viability: 1.08
NCI-H1650; first compound 0.08 µM
  relative viability: 1.27
NCI-H1650; first compound 0.8 µM
  relative viability: 1.37
NCI-H1650; first compound 2.53 µM
  relative viability: 1.57
NCI-H1650; first compound 8 µM
  relative viability: 1.36
RERF-LC-KJ; first compound 0.08 µM
  relative viability: 0.963
RERF-LC-KJ; first compound 0.8 µM
  relative viability: 1.14
RERF-LC-KJ; first compound 2.53 µM
  relative viability: 0.808
RERF-LC-KJ; first compound 8 µM
  relative viability: 0.821
ChaGo-K-1; first compound 0.08 µM
  relative viability: 1.17
ChaGo-K-1; first compound 0.8 µM
  relative viability: 1.54
ChaGo-K-1; first compound 2.53 µM
  relative viability: 0.956
ChaGo-K-1; first compound 8 µM
  relative viability: 0.777
HCC-44; first compound 0.08 µM
  relative viability: 0.903
HCC-44; first compound 0.8 µM
  relative viability: 0.911
HCC-44; first compound 2.53 µM
  relative viability: 1.07
HCC-44; first compound 8 µM
  relative viability: 0.923
COR-L23; first compound 0.08 µM
  relative viability: 0.991
COR-L23; first compound 0.8 µM
  relative viability: 1.32
COR-L23; first compound 2.53 µM
  relative viability: 1.19
COR-L23; first compound 8 µM
  relative viability: 1.22
NCI-H460; first compound 0.08 µM
  relative viability: 1.07
NCI-H460; first compound 0.8 µM
  relative viability: 1.26
NCI-H460; first compound 2.53 µM
  relative viability: 1.4
NCI-H460; first compound 8 µM
  relative viability: 1.08
SW 1573; first compound 0.08 µM
  relative viability: 0.973
SW 1573; first compound 0.8 µM
  relative viability: 0.976
SW 1573; first compound 2.53 µM
  relative viability: 1.02
SW 1573; first compound 8 µM
  relative viability: 1.02
NCI-H2126; first compound 0.08 µM
  relative viability: 0.879
NCI-H2126; first compound 0.8 µM
  relative viability: 0.801
NCI-H2126; first compound 2.53 µM
  relative viability: 0.848
NCI-H2126; first compound 8 µM
  relative viability: 0.869
LOU-NH91; first compound 0.08 µM
  relative viability: 0.77
LOU-NH91; first compound 0.8 µM
  relative viability: 1.02
LOU-NH91; first compound 2.53 µM
  relative viability: 0.837
LOU-NH91; first compound 8 µM
  relative viability: 0.637
NCI-H1993; first compound 0.08 µM
  relative viability: 0.958
NCI-H1993; first compound 0.8 µM
  relative viability: 0.84
NCI-H1993; first compound 2.53 µM
  relative viability: 0.916
NCI-H1993; first compound 8 µM
  relative viability: 0.893
HARA; first compound 0.08 µM
  relative viability: 1.12
HARA; first compound 0.8 µM
  relative viability: 1.2
HARA; first compound 2.53 µM
  relative viability: 1.12
HARA; first compound 8 µM
  relative viability: 1.13
201T; first compound 0.08 µM
  relative viability: 1.18
201T; first compound 0.8 µM
  relative viability: 1.19
201T; first compound 2.53 µM
  relative viability: 1.19
201T; first compound 8 µM
  relative viability: 1.17
NCI-H441; first compound 0.08 µM
  relative viability: 0.52
NCI-H441; first compound 2.53 µM
  relative viability: 0.56
NCI-H441; first compound 8 µM
  relative viability: 0.667
HCC-78; first compound 0.08 µM
  relative viability: 0.797
HCC-78; first compound 0.8 µM
  relative viability: 0.931
HCC-78; first compound 2.53 µM
  relative viability: 0.863
HCC-78; first compound 8 µM
  relative viability: 0.762
A-427; first compound 0.08 µM
  relative viability: 0.975
A-427; first compound 0.8 µM
  relative viability: 0.929
A-427; first compound 2.53 µM
  relative viability: 0.939
A-427; first compound 8 µM
  relative viability: 1
NCI-H1734; first compound 0.08 µM
  relative viability: 0.847
NCI-H1734; first compound 0.8 µM
  relative viability: 1.09
NCI-H1734; first compound 2.53 µM
  relative viability: 1.23
NCI-H1734; first compound 8 µM
  relative viability: 0.894
NCI-H2023; first compound 0.08 µM
  relative viability: 1.05
NCI-H2023; first compound 0.8 µM
  relative viability: 1.05
NCI-H2023; first compound 2.53 µM
  relative viability: 1.02
NCI-H2023; first compound 8 µM
  relative viability: 0.689
HCC-15; first compound 0.08 µM
  relative viability: 0.659
HCC-15; first compound 0.8 µM
  relative viability: 0.773
HCC-15; first compound 2.53 µM
  relative viability: 0.718
HCC-15; first compound 8 µM
  relative viability: 0.693
